These results are taken from US9670161B2, “5-fluoro-N-(pyridin-2-yl)pyridin-2-amine derivatives containing a sulfone group” (BAYER PHARMA AKTIENGESELLSCHAFT, priority 2012, dated 2017).

For assay [1], the system named is HeLa, human cervical tumour cells. Kind of assay: Proliferation assay, HeLa (crystal violet). In kind it is cell-based. To be noted: 96 h, 4 days, read-out: Inhibition of HeLa cell proliferation IC50. On the procedure:
Cultivated tumour cells (HeLa, human cervical tumour cells, ATCC CCL-2; NCI-H460, human non-small cell lung carcinoma cells, ATCC HTB-177; A2780, human ovarian carcinoma cells, ECACC #93112519; DU 145, hormone-independent human prostate carcinoma cells, ATCC HTB-81; HeLa-MaTu-ADR, multidrug-resistant human cervical carcinoma cells, EPO-GmbH Berlin; Caco-2, human colorectal carcinoma cells, ATCC HTB-37; B16F10, mouse melanoma cells, ATCC CRL-6475) were plated at a density of 5,000 cells/well (DU145, HeLa-MaTu-ADR), 3,000 cells/well (NCI-H460, HeLa), 2,500 cells/well (A2780), 1,500 cells/well (Caco-2), or 1,000 cells/well (B16F10) in a 96-well multititer plate in 200 μL of their respective growth medium supplemented 10% fetal calf serum. After 24 hours, the cells of one plate (zero-point plate) were stained with crystal violet (see below), while the medium of the other plates was replaced by fresh culture medium (200 μl), to which the test substances were added in various concentrations (0 μM, as well as in the range of 0.001-10 μM; the final concentration of the solvent dimethyl sulfoxide was 0.5%). The cells were incubated for 4 days in the presence of test substances. Cell proliferation was determined by staining the cells with crystal violet: the cells were fixed by adding 20 μl/measuring point of an 11% glutaric aldehyde solution for 15 minutes at room temperature. After three washing cycles of the fixed cells with water, the plates were dried at room temperature. The cells were stained by adding 100 μl/measuring point of a 0.1% crystal violet solution (pH 3.0). After three washing cycles of the stained cells with water, the plates were dried at room temperature. The dye was dissolved by adding 100 μl/measuring point of a 10% acetic acid solution. The extinction was determined by photometry at a wavelength of 595 nm. The change of cell number, in percent, was calculated by normalization of the measured values to the extinction values of the zero-point plate (=0%) and the extinction of the untreated (0 μm) cells (=100%). The IC50 values (inhibitory concentration at 50% of maximal effect) were determined by means of a 4 parameter fit.

The target in another assay is CDK2/CycE (Homo sapiens (Human), UniProt P24941). Kind of assay: CDK2/CycE high ATP kinase assay (TR-FRET, 2 mM ATP). In kind it is biochemical. To be noted: Method 2b. On the procedure: 2b. CDK2/CycE High ATP Kinase Assay
CDK2/CycE-inhibitory activity of compounds of the present invention at 2 mM adenosine-tri-phosphate (ATP) was quantified employing the CDK2/CycE TR-FRET (TR-FRET=Time Resolved Fluorescence Energy Transfer) assay as described in the following paragraphs.
Recombinant fusion proteins of GST and human CDK2 and of GST and human CycE, expressed in insect cells (Sf9) and purified by Glutathion-Sepharose affinity chromatography, were purchase from ProQinase GmbH (Freiburg, Germany). As substrate for the kinase reaction biotinylated peptide biotin-Ttds-YISPLKSPYKISEG (C-terminus in amid form) was used which can be purchased e.g. form the company JERINI peptide technologies (Berlin, Germany).
For the assay 50 nl of a 100 fold concentrated solution of the test compound in DMSO was pipetted into a black low volume 384 well microtiter plate (Greiner Bio-One, Frickenhausen, Germany), 2 μl of a solution of CDK2/CycE in aqueous assay buffer [50 mM Tris/HCl pH 8.0, 10 mM MgCl2, 1.0 mM dithiothreitol, 0.1 mM sodium ortho-vanadate, 0.01% (v/v) Nonidet-P40 (Sigma)] were added and the mixture was incubated for 15 min at 22° C. to allow pre-binding of the test compounds to the enzyme before the start of the kinase reaction. Then the kinase reaction was started by the addition of 3 μl of a solution ATP (3.33 mM=>final conc. in the 5 μl assay volume is 2 mM) and substrate (1.25 μM=>final conc. in the 5 μl assay volume is 0.75 μM) in assay buffer and the resulting mixture was incubated for a reaction time of 25 min at 22° C. The concentration of CDK2/CycE was adjusted depending of the activity of the enzyme lot and was chosen appropriate to have the assay in the linear range, typical concentrations were in the range of 15 ng/ml. The reaction was stopped by the addition of 5 μl of a solution of TR-FRET detection reagents (0.2 μM streptavidine-XL665 [Cisbio Bioassays, Codolet, France] and 1 nM anti-RB(pSer807/pSer811)-antibody from BD Pharmingen [#558389] and 1.2 nM LANCE EU-W1024 labeled anti-mouse IgG antibody [Perkin-Elmer, product no. AD0077, as an alternative a Terbium-cryptate-labeled anti-mouse IgG antibody from Cisbio Bioassays can be used]) in an aqueous EDTA-solution (100 mM EDTA, 0.2% (w/v) bovine serum albumin in 100 mM HEPES/NaOH pH 7.0).
The resulting mixture was incubated 1 h at 22° C. to allow the formation of complex between the phosphorylated biotinylated peptide and the detection reagents. Subsequently the amount of phosphorylated substrate was evaluated by measurement of the resonance energy transfer from the Eu-chelate to the streptavidine-XL. Therefore, the fluorescence emissions at 620 nm and 665 nm after excitation at 350 nm were measured in a TR-FRET reader, e.g. a Rubystar (BMG Labtechnologies, Offenburg, Germany) or a Viewlux (Perkin-Elmer). The ratio of the emissions at 665 nm and at […] was taken as the measure for the amount of phosphorylated substrate. The data were normalised (enzyme reaction without inhibitor=0% inhibition, all other assay components but no enzyme=100% inhibition).
Background: In TR-FRET formats the signal depends on donor and acceptor labels being close together.

Some results are limits rather than exact numbers.

Turning to `COc1cc(F)ccc1-c1cc(Nc2cc(CS(C)(=O)=O)ccn2)ncc1F` [Example 1, 5-Fluoro-4-(4-fluoro-2-methoxyphenyl)-N-{4-[(methylsulfonyl)methyl]pyridin-2-yl}pyridin-2-amine], the IC50 in assay [1] turned out to be 84 nM; on CDK2/CycE, 2180 nM.

As to `COc1cc(F)ccc1-c1cc(Nc2cc(CS(C)(=O)=O)cc(C)n2)ncc1F` [Example 2, 5-Fluoro-4-(4-fluoro-2-methoxyphenyl)-N-{6-methyl-4-[(methylsulfonyl)methyl]pyridin-2-yl}pyridin-2-amine], the IC50 turned out to be 37 nM in assay [1] and 625 nM against CDK2/CycE.

Regarding `COc1cc(F)ccc1-c1cc(Nc2cc(CS(C)(=O)=O)cc(F)n2)ncc1F` [Example 3, 5-Fluoro-4-(4-fluoro-2-methoxyphenyl)-N-{6-fluoro-4-[(methylsulfonyl)methyl]pyridin-2-yl}pyridin-2-amine], the IC50 in assay [1] amounted to 100 nM; against CDK2/CycE, 787 nM.

For `COc1cc(F)ccc1-c1cc(Nc2cc(CS(C)(=O)=O)cc(C(F)(F)F)n2)ncc1F` [Example 4, 5-Fluoro-4-(4-fluoro-2-methoxyphenyl)-N-{4-[(methylsulfonyl)methyl]-6-(trifluoromethyl)pyridin-2-yl}pyridin-2-amine], the IC50 in assay [1] was 16 nM; against CDK2/CycE it was 169 nM.

With `COc1cc(F)ccc1-c1cc(Nc2cc(CS(C)(=O)=O)cc(C(F)F)n2)ncc1F` [Example 5, N-{6-(Difluoromethyl)-4-[(methylsulfonyl)methyl]pyridin-2-yl}-5-fluoro-4-(4-fluoro-2-methoxyphenyl)pyridin-2-amine], the values for the IC50 (in assay [1]; against CDK2/CycE) were below 30 nM and 103 nM, respectively.
